According to PMC9862409 (Pharmaceutics, 2023):
In brackets after ≈: the same amount, converted by molar mass.

Legend:
mushroom tyrosinase = test: Anti-tyrosinase assay; assay type: biochemical
Procedure: For the anti-tyrosinase assay, mushroom tyrosinase (5600 units/mL) was incubated at 37 °C for 15 min along with tested samples or standard inhibitor kojic acid (1.4 mg/mL) before the addition of the substrate 1 mM L-DOPA. Afterward, the optical density of the formed dopachrome was analyzed at 475 nm. Various concentrations of the tested samples (75–500 µg/mL) were used. All tests were conducted in triplicate. The enzyme inhibition activity was expressed in percentage using the following equation: (5) Enzyme inhibition activity %=Optical density of control – Optical density of sample/Optical density of control×100
Statistical analysis of in vitro drug release kinetic models was carried out using one-way analysis of variance (ANOVA) followed by Tukey’s Multiple Comparison post hoc test; p ≤ 0.05. Moreover, in vitro skin-related enzyme inhibitory assays were carried out in triplicates, and results were expressed as mean ± standard deviation. A non-linear regression curve was used to calculate IC50. An unpaired t-test was used for statistical comparison between the two groups. p < 0.05 is considered statistically significant. Analyses were done using GraphPad Prism 6.01 (San Diego, CA, USA).

[1] = In vitro drug release, dialysis bag diffusion method; assay type: physicochemical; settings: after 6 h; PBS pH 7.4, 37 °C
Procedure: The dissolution medium was phosphate buffer saline (PBS) (pH 7.4), which mimics physiological pH. […] Aliquots of 3 mL were taken from the dissolution medium at predefined time points at 0.5, 1, 2, 3, 4, 5, 6, 7, 8, 10, 12, 24, 36, and finally at 48 h. The sink conditions were maintained by immediately replenishing the equivalent volume of fresh PBS (pH 7.4) after each aliquot withdrawal. […] The study was performed in triplicate and was graphically presented as the cumulative percentage of drug release versus time. Data from the in vitro drug release study was further analyzed using different kinetic models to determine the drug release pattern.
Statistical analysis of in vitro drug release kinetic models was carried out using one-way analysis of variance (ANOVA) followed by Tukey’s Multiple Comparison post hoc test; p ≤ 0.05. […] Analyses were done using GraphPad Prism 6.01 (San Diego, CA, USA).

[2] = test system: methicillin-resistant Staphylococcus aureus (MRSA); test: MIC by broth microdilution method; assay type: cell-based
Procedure: (§1) The MIC was determined by the broth microdilution method. […] Stock solutions were serially diluted (2-fold) in sterile Müeller Hinton broth (MHB) with a dilution range of 0.125 to 150 µg/mL. Overnight culture turbidity was adjusted equivalent to the 0.5 McFarland standard and then diluted to give a final concentration equivalent to 10^6 CFU/mL [30]. One hundred microliters of the adjusted bacterial culture were added to an equal volume of the tested dilutions in a 96-well microtiter plate. The plates were then incubated at 37 °C for 24 h.
(§2) The MIC was recorded as the lowest concentration of an antimicrobial agent, which gave no visible growth. […] The experiment was conducted in triplicate. The mean as well as standard deviation were recorded.

Staphylococcus aureus = test: MIC by broth microdilution method; assay type: cell-based; settings: Staphylococcus aureus (ATCC® 25922)
Procedure: as §1, §2

[3] = molecular target: collagenase type 1 from Clostridium histolyticum; test: Anti-collagenase assay; assay type: biochemical; settings: +ve control = EDTA
Procedure: For the anti-collagenase, collagenase type 1 from Clostridium histolyticum (1 mg/mL) buffer (pH 7.4) along with tested samples or standard inhibitor ethylenediamine tetraacetic acid (EDTA) (1.4 mg/mL) were incubated at 37 °C for 20 min prior to the addition of 100 µL of the substrate 2-furanacryloyl-l-leucylglycyl-l-prolyl-l-alanine (FALGPA). The mixture was then incubated at 37 °C for an additional 1 h before the addition of 200 µL of 2% ninhydrin in 200 mM citrate buffer (pH 5) and placed in a water bath for 5 min. Afterward, the solution was left to cool down completely. Afterwards 200 µL of 50% isopropanol was added, and the optical densities were analyzed at 540 nm. Various concentrations of the tested samples (25–300 µg/mL) were used.

human leukocyte elastase = molecular target: T1, human leukocyte elastase (Homo sapiens, UniProt P08246); test: Anti-elastase assay; assay type: biochemical
T1 construct: purchased Nawah Scientific Inc., Cairo, Egypt
T1 sequence (P08246 30-267): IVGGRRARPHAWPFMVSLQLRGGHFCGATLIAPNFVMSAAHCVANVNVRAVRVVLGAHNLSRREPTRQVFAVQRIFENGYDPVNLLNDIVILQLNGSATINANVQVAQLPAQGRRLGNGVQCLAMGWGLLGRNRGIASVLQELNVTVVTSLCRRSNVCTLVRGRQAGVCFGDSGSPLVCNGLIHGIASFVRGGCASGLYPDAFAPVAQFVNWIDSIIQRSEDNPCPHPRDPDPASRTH
Procedure: The anti-elastase, anti-collagenase, and anti-tyrosinase activities were assessed following the method reported by Mostafa et al. [32]. […] For the anti-elastase assay, human leukocyte elastase (1 µg/mL) was incubated with N-2-hydroxyethylpiperazine-N-2-ethane sulfonic acid (HEPES) buffer (pH 7.5). Each of the tested samples or the standard inhibitor N-Methoxysuccinyl-Ala-Ala-Pro-chloromethyl ketone (1.4 mg/mL) was added into the 96-well plate for 20 min at 25 °C before the addition of 100 µL substrate of 1 mM N-Methoxysuccinyl-Ala-Ala-Pro-Val-p-nitroanilide. Afterward, the optical density was measured after 40 min of incubation at 405 nm against a blank well lacking the test sample/inhibitor. Various concentrations of the tested samples (25–300 µg/mL) were used.
Moreover, in vitro skin-related enzyme inhibitory assays were carried out in triplicates, and results were expressed as mean ± standard deviation. A non-linear regression curve was used to calculate IC50. An unpaired t-test was used for statistical comparison between the two groups. p < 0.05 is considered statistically significant. […]

RBCs = settings: cited from earlier work
[4] = susceptible ≤4 µg/mL, resistant ≥8 µg/mL

CC(=O)NC[C@H]1CN(c2ccc(N3CCOCC3)c(F)c2)C(=O)O1 [LNZ, Linezolid]
Anti-Tyrosinase IC50 (mushroom tyrosinase; +ve control = kojic acid): 363.50 ± 2.08 µg/mL
Anti-Tyrosinase % Inhibition (mushroom tyrosinase; samples tested 75–500 µg/mL, concentration of this value not stated, +ve control = kojic acid (1.4 mg/mL)): 65.00 ± 1.63%
percentage LNZ released [1]: ~98 ± 0.5%
Minimum Inhibitory Concentration (MIC) ([2]; 37 °C, 24 h): 4 ± 0.00 µg/mL
MIC ([2]; Staphylococcus aureus, 37 °C, 24 h, read-out: Minimum Inhibitory Concentration (MIC)): 4 µg/mL (≈ 11.9 µM)
susceptibility class (CLSI breakpoints) [2, 4]: S (S: sensitive)
MIC (Staphylococcus aureus; ATCC25922, 37 °C, 24 h, read-out: Minimum Inhibitory Concentration (MIC)): 4 µg/mL (≈ 11.9 µM)
Minimum Inhibitory Concentration (MIC) (Staphylococcus aureus; 37 °C, 24 h): 4 ± 0.00 µg/mL
susceptibility class (CLSI breakpoints) (Staphylococcus aureus; [4]): S (S: sensitive)
Anti-Collagenase IC50 [3]: 335.34 ± 2.09 µg/mL
IC50 (human leukocyte elastase; +ve control = N-Methoxysuccinyl-Ala-Ala-Pro-chloromethyl ketone, read-out: Anti-Elastase IC50 (µg/mL) (converted)): 170 µM
Anti-Elastase % Inhibition (human leukocyte elastase; samples tested 25–300 µg/mL, concentration of this value not stated, +ve control = N-Methoxysuccinyl-Ala-Ala-Pro-chloromethyl ketone (1.4 mg/mL)): 88.00 ± 1.35%
hemolysis percentage (RBCs): 14%
